The text below walks through data of paper PMC3953731 (FEBS Open Bio, 2014).

Assay [1] has as its system the four isomaltases (Ima1p, Ima2p, Ima3p, Ima5p). Nature of the assay: Effects of chemical reagents and metal ions on purified isomaltases. Format: biochemical, Saccharomyces cerevisiae.
The target in assay [2] is T1, Ima3p (Saccharomyces cerevisiae, UniProt P0CW40). The conditions noted are these: addition of EDTA, 5 mM; 5 mM pNPG as substrate.
Assay [3] addresses T2, Ima1p (Saccharomyces cerevisiae, UniProt P53051). Nature of the assay: Effects of chemical reagents and metal ions on purified isomaltases. The format is biochemical. The conditions noted are these: 5 mM pNPG as substrate; for effect on activity: Mg2+ 5 mM, Mn2+ 1 mM.
The target of assay [4] is T3, Ima2p (Saccharomyces cerevisiae, UniProt Q08295). Nature of the assay: Substrate specificity of purified isomaltase. Format: biochemical. The conditions noted are these: 100 mM substrate (pNPG 5 mM), pH 7, 30 °C; for Specific activities: citrate–potassium phosphate buffer.
T3 sequence (Q08295 whole entry): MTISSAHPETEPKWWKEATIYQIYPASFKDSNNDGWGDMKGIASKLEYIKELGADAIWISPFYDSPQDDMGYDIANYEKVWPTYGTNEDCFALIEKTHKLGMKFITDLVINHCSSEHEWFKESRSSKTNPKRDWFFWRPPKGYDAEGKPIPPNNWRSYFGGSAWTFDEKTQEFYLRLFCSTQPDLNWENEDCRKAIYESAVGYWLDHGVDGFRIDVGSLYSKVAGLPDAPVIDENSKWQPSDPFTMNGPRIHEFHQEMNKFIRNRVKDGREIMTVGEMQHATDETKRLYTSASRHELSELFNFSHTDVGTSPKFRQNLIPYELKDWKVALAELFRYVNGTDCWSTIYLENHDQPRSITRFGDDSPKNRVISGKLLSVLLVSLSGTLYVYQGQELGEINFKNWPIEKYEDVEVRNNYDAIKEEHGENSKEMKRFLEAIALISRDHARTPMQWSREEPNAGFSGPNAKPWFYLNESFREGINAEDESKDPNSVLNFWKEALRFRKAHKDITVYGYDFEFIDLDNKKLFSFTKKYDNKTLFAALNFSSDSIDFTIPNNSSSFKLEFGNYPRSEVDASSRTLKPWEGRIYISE
The target in assay [5] is Ima3pL240P (Saccharomyces cerevisiae, UniProt P0CW40, L240P). As to the kind of experiment: Substrate specificity of purified isomaltase variant. The format is biochemical. The conditions noted are these: 100 mM substrate (pNPG 5 mM), citrate–potassium phosphate buffer, pH 7, 30 °C.
Chain of Ima3pL240P (P0CW40 whole entry L240P): as the sequence (Q08295 whole entry) above, with A54T, Q279R counted along it
Assay [6] has as its target T2, Ima1p. Nature of the assay: Kinetic parameters for selected substrates. The format is biochemical. The conditions noted are these: for Km: affinity constant for the substrate; for Km / kcat: mean ± SEM.
Assay [7] deals with T1, Ima3p. Nature of the assay: Substrate specificity of purified isomaltase. The format is biochemical. The conditions noted are these: 100 mM substrate (pNPG 5 mM), pH 7, 30 °C; for Specific activities: citrate–potassium phosphate buffer.
Assay [8] has as its target T2, Ima1p. As to the kind of experiment: Substrate specificity of purified isomaltase. Format: biochemical. The conditions noted are these: 100 mM substrate (pNPG 5 mM), pH 7, 30 °C; for Specific activities: citrate–potassium phosphate buffer.
Assay [9] addresses T4, Ima5p (Saccharomyces cerevisiae, UniProt P40884).
T4 sequence (P40884 1-581): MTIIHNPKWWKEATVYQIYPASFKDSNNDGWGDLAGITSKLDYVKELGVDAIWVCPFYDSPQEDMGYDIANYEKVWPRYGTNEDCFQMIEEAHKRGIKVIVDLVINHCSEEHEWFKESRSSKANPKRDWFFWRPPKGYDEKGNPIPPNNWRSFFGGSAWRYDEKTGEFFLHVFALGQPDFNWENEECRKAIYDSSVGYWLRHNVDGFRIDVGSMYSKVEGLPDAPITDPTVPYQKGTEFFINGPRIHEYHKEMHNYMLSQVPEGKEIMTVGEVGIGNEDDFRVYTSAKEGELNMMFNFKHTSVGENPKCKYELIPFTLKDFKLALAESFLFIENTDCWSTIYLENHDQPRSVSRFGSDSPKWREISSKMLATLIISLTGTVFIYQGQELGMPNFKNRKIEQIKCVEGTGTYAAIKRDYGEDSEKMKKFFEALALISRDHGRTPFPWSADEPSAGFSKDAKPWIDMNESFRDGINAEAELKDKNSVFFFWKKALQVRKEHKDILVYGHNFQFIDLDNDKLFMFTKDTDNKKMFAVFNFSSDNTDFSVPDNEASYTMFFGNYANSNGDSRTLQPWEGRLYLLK
As to the kind of experiment: Kinetic parameters for selected substrates. The format is biochemical.

In assay [10] the target is Ima3pR279Q (Saccharomyces cerevisiae, UniProt P0CW40, R279Q). As to the kind of experiment: Substrate specificity of purified isomaltase variant. Format: biochemical. The conditions noted are these: 100 mM substrate (pNPG 5 mM), citrate–potassium phosphate buffer, pH 7, 30 °C.
Chain of Ima3pR279Q (P0CW40 whole entry R279Q): as the sequence (Q08295 whole entry) above, with A54T, P240L counted along it
Assay [11] has as its target T4, Ima5p. As to the kind of experiment: Substrate specificity of purified isomaltase. The conditions noted are these: 100 mM substrate (pNPG 5 mM), pH 7, 30 °C; for Specific activities: citrate–potassium phosphate buffer. The format is biochemical.
Assay [12] addresses T1, Ima3p. Nature of the assay: Kinetic parameters for selected substrates. Format: biochemical.
The target of assay [13] is T3, Ima2p. Nature of the assay: Kinetic parameters for selected substrates. The format is biochemical.
Assay [14] relates to the four isomaltases (Ima proteins). As to the kind of experiment: Effect of compounds on melting temperature of isomaltases. Further details: species or system Saccharomyces cerevisiae. The conditions noted are these: Tris 5 mM, assay at pH 7.0, results not shown.
Assay [15] concerns the target T2, Ima1p. Nature of the assay: Inhibition by acarbose of isomaltose hydrolysis. The conditions noted are these: read-out: residual activity. The format is biochemical.
Assay [16] concerns the four isomaltases (Ima1p, Ima2p, Ima3p, Ima5p). Nature of the assay: Activity of the isomaltases on substrates. The format is biochemical, Saccharomyces cerevisiae. The conditions noted are these: for activity on the substrate: all Ima proteins.
[17] abbreviates: inhibition by high concentration of substrate.
Setting [18] is: affinity constant for the substrate, mean ± SEM.
Setting [19] is: substrate concentration increased to 10 mM.

Where two headings read alike, the source gives them in different places.

T1 sequence (P0CW40 whole entry): as the sequence (Q08295 whole entry) above, with A54T, P240L, Q279R counted along it
T2 sequence (P53051 whole entry): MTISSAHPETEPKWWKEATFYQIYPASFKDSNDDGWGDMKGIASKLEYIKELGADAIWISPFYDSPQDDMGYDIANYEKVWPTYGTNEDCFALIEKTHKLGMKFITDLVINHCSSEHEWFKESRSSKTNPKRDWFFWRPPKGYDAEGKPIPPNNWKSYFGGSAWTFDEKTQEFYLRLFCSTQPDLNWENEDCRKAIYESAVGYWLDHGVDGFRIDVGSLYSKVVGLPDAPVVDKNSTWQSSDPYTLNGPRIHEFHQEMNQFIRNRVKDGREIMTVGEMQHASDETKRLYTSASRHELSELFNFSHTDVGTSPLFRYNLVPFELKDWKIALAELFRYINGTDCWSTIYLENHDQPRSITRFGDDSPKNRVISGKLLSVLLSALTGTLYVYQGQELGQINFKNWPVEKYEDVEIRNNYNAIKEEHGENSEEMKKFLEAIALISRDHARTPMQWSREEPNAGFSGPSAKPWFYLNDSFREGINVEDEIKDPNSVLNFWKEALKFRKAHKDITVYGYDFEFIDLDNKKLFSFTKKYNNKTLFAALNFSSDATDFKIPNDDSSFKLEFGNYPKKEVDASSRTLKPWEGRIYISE

As to `[Ca+2]` [Ca^2+], the effect on activity entry in [1] (addition of Ca2+, 5 mM) is reported as “None of the isoforms was affected”.

For `O=C(O)CN(CCN(CC(=O)O)CC(=O)O)CC(=O)O` [EDTA], the effect on activity result in assay [2] was “slightly inhibited”.

Take `[Fe+3]` [Fe^3+]: the residual activity (in general, the share of the control activity or signal that is left under treatment) in [3] (5 mM Fe3+, pH 7, 30 °C) was determined as 8%.

For the compound `[Mg+2]` [Mg^2+], the effect on activity entry in assay [3] is “slightly enhanced”.

For `[Mn+2]` [Mn^2+], in assay [3], the effect on activity entry is “slightly enhanced”.

Turning to `OC[C@H]1O[C@H](OC[C@H]2O[C@H](O[C@H]3[C@H](O)[C@@H](O)C(O)O[C@@H]3CO)[C@H](O)[C@@H](O)[C@@H]2O)[C@H](O)[C@@H](O)[C@@H]1O` (stereo partly drawn) [Panose, O-α-D-Glucosyl-(1→6)-α-D-glucosyl-(1→4)-D-glucose], the Specific activities came to 2.9 µmol/min/mg in assay [4]; 0 µmol/min/mg in [5]; 0 µmol/min/mg in assay [7]; 3.1 µmol/min/mg in assay [8]; 3.1 µmol/min/mg in [10]; 11 µmol/min/mg in [11]. Besides, the results for the “relative activity, velocity on isomaltose set to 100” value (shortened to “relative activity, velocity”) in [4], in [8] and in assay [11] were 5%, 5% and 17%, respectively. The Km (in general, the concentration of substrate that gives half-maximal velocity) was found to be 82 ± 17 mM in assay [6] and 82 ± 12 mM in assay [9] (setting [18]). In addition, the Ki result in assay [6] (setting [17]), in assay [9] (setting [17]), in [12] (setting [17]) and in assay [13] (setting [17]) was “None” each time. Besides, the turnover number (kcat) (as a rule, the maximal rate divided by the concentration of active sites) is 6.3 ± 0.5 s⁻¹ in [6], 23 ± 1 s⁻¹ in assay [9] (mean ± SEM), 0 s⁻¹ in [12] (mean ± SEM) and 7.7 ± 0.7 s⁻¹ in assay [13] (mean ± SEM). Further, the “more activity of Ima5p than Ima1p” value in assay [9] (whatsoever the panose concentration) is listed as 3.5 fold.

Take `OC[C@H]1O[C@@](CO)(O[C@H]2O[C@H](CO)[C@@H](O)[C@H](O)[C@H]2O)[C@@H](O)[C@@H]1O` [Sucrose, O-α-D-Glucosyl-(1→2)-β-D-fructose]: the Specific activities was found to be 19.7 µmol/min/mg in assay [4]; 11.2 µmol/min/mg in assay [5]; 10.2 µmol/min/mg in [7]; 18.6 µmol/min/mg in assay [8]; 22 µmol/min/mg in assay [10]; 1.2 µmol/min/mg in assay [11]. For the same compound, the “relative activity, velocity” value in [4] was 36%; in [4] (listed as sucrose), “approx. 35%”; in [7], 142%; in assay [8], 31%; in assay [8] (listed as sucrose) it was “approx. 35%”; in [11], 2%. Moreover, the Ki entry in [6] (setting [17]), in [9] (setting [17]), in assay [12] (setting [17]) and in assay [13] (setting [17]) was “None” in each case. For the same compound, the kcat in [6] stood at 51 ± 4 s⁻¹; in assay [9] (mean ± SEM), 3.8 ± 0.2 s⁻¹; in assay [12] (mean ± SEM), 25 ± 1 s⁻¹; in assay [13] (mean ± SEM), 55 ± 4 s⁻¹. Moreover, the “lower activity of Ima5p than Ima1p” value in assay [9] worked out at 10 fold. In addition, the “catalytic efficiency on sucrose, times lower than on isomaltose” value in assay [12] was 2 times. Moreover, the “catalytic efficiency on sucrose, times lower than on palatinose” value in [12] amounted to 4 times.

On to `NC(CO)(CO)CO` [Tris], for which, in assay [1] (5 mM Tris), the “inhibition of the activity” value was 90%. Moreover, the “increase of Tm of the 4 proteins” value in [14] was “about 5 °C”.

Turning to `C[C@H]1O[C@H](O[C@H]2[C@H](O)[C@@H](O)[C@@H](O[C@H]3[C@H](O)[C@@H](O)C(O)O[C@@H]3CO)O[C@@H]2CO)[C@H](O)[C@@H](O)[C@@H]1N[C@H]1C=C(CO)[C@@H](O)[C@H](O)[C@H]1O` (stereo partly shown) [acarbose], in assay [15], the remaining activity at 5000 µM was ~80% and the remaining activity at 20000 µM was ~40%.

Turning to `OC[C@H]1O[C@H](OC[C@H]2O[C@H](O)[C@H](O)[C@@H](O)[C@@H]2O)[C@H](O)[C@@H](O)[C@H]1O` [melibiose, O-α-D-galactosyl-(1→6)-α-D-glucose], the “activity on the substrate” value in assay [16] was “inactive”.

For `COC1OC(CO)C(O)C(O)C1O` (stereo not drawn) [α-MG, α-Methylglucopyranoside], the Specific activities in [4] is 55 µmol/min/mg; in assay [5], 6.5 µmol/min/mg; in assay [7] it was 11 µmol/min/mg; in [8], 52 µmol/min/mg; in [10], 50 µmol/min/mg; in assay [11], 0 (0) μmol/min/mg. In addition, the “relative activity, velocity” value is 102% in assay [4], 153% in assay [7], 87% in assay [8] and 0 (0) % in assay [11]. Moreover, the Km in [6] is 27 ± 5 mM; in assay [12] (setting [18]), 15 ± 2 mM; in assay [13] (setting [18]) it was 28 ± 6 mM. For the same compound, the catalytic constant (kcat) was 84 ± 8 s⁻¹ in assay [6], 0 s⁻¹ in assay [9] (mean ± SEM), 14 ± 1 s⁻¹ in assay [12] (mean ± SEM) and 88 ± 9 s⁻¹ in assay [13] (mean ± SEM). In addition, the inhibition constant Ki result in [9] (setting [17]) and in assay [12] (setting [17]) was “None” in each case.

For the compound `O=[N+]([O-])c1ccc(O[C@H]2O[C@H](CO)[C@@H](O)[C@H](O)[C@H]2O)cc1` [α-pNPG, 4-Nitrophenyl α-D-glucopyranoside], the Specific activities in assay [4] was found to be 7.7 µmol/min/mg; in assay [5], 5.5 µmol/min/mg; in [7], 3.9 µmol/min/mg; in assay [8], 5.8 µmol/min/mg; in assay [10], 8.5 µmol/min/mg; in [11], 10 µmol/min/mg. For the same compound, the “relative activity, velocity” value in assay [4] is on record as 14%; in [7], 54%; in assay [8], 10%; in assay [11] it was 15%. Moreover, the Km in assay [16] (read-out: affinity constants (Km), approximate, over the Ima proteins) was ~0.5 mM. Further, the Ki – broadly, a dissociation constant, usually derived from enzyme kinetics or from competition with a known ligand – in assay [6] came to 25 ± 15 mM; in assay [9] it was 33 ± 21 mM; in assay [12], 9.8 ± 3.2 mM; in [13], 12 ± 3 mM. Also, the “drop of activity at high substrate concentration” value in [6] (setting [19]) stood at 10%; in assay [9] (setting [19]) it was 10%; in [12] (setting [19]) it was 33%.

With `O=[N+]([O-])c1ccc(O[C@@H]2O[C@H](CO)[C@@H](O)[C@H](O)[C@H]2O)cc1` [β-pNPG, 4-Nitrophenyl β-D-glucopyranoside], the Specific activities in assay [4], in assay [7], in assay [8] and in [11] was 0 µmol/min/mg each time. In assay [16], the “activity on the substrate” value was “no release of pNP”.

With maltoheptaose, the “activity on the substrate” value in [16] was “No activity could be detected”.

With maltopentaose, the “activity on the substrate” value in assay [16] is given as “No activity could be detected”.
